Consider one compound from patent US5212165A, “Method for rehabilitating the vasorelaxant action of the coronary arteries impaired through atherosclerosis or hypercholesterolemia employing an ACE inhibitor” (E. R. Squibb & Sons, Inc., priority 1989, dated 1993).

Assay [1] concerns alpha-adrenoceptor (isolated iliac arteries). As to the kind of experiment: Contractile responses to phenylephrine of isolated iliac arteries from cynomolgus monkeys. Set-up: species or system cynomolgus (Macaca fascicularis) monkeys. The source says: Twenty-four male cynomolgus (Macaca fascicularis) monkeys were divided into four groups of six animals each. During the course of the study, one of the control monkeys was sacrificed due to ill health unrelated to the study. Each group was fed a different diet for six months. The control group ate a normal diet of monkey biscuit. The cholesterol group ate a specially formulated monkey diet containing cholesterol. The cholesterol +low captopril group ate the cholesterol diet supplemented with captopril (50 mg/kg divided into two daily doses). The cholesterol+high captopril group ate the cholesterol diet and a higher total dose of captopril (100 mg/kg divided into two daily doses).
The monkeys were sedated with an intramuscular injection of ketamine (10 mg/kg), then anesthetized with pentobarbital (25 mg/kg). The iliac arteries were carefully dissected, cleaned of surrounding connective tissue, and refrigerated overnight for use the following day.
On the day of the experiment, three iliac rings (3 mm wide) from each animal were cut and mounted for isometric force recording. Each ring was attached to a micrometer for the control of muscle length and to a Grass FT.03 force transducer and Grass 7D recorder. The rings were placed in warm (37° C.), oxygenated, physiological salt solution (PSS) of the following composition (in mM): 140.0 NaCl, 4.7 KCl, 1.2 MgSO4, 1.6 CaCl2, 1.2 NaH2 PO4, 5.6 D-glucose, 2.0 2-(N-morpholino)propanesulfonic acid (MOPS, pH 7.4 at 37° C.), and 0.02 Na2 -ethylenediaminetetraacetic acid (EDTA). The rings were stretched to a preload of 5 g during a 2 hour equilibration period, then stimulated with 1 μM phenylephrine to test for viability and relaxed with 100 nM acetylcholine to test for endothelial function. Stock solutions of phenylphrine, acetylcholine, propranolol, and sodium nitroprusside were prepared daily in water; nifedipine stock solutions were prepared daily in ethanol.
Alpha-adrenoceptor and endothelial cell function were examined in the third ring from each monkey. In the presence of 0.1 μM propranolol, a cumulative concentration-response curve to phenylephrine was obtained, then the phenylephrine was washed out of the baths and the rings were allowed to relax completely. The rings were subsequently contracted with an EC50 concentration of phenylephrine (1 μM) and, following stabilization of the contraction, the rings were treated with increasing concentrations of acetylcholine, followed by 100 nM sodium nitroprusside.
Data are presented as mean±SEM. The IC50 and EC50 values were estimated by linearly interpolating from the concentration-response curves. The EC50 values for each ring were used to determine the means for each treatment group.
Phenylephrine concentration-response curves were obtained in iliac rings from all groups of monkeys.

In assay [2] the test system is rat aortic rings. The settings on record: Hartich et al, Shultz et al, cited from earlier work.
Assay [3] concerns isolated rat hearts. Conditions: van Gilst et al; cited from earlier work.
In assay [4] the test system is guinea pig or rat lungs. Conditions: guinea pig lungs; cited from earlier work.

As to `C[C@H](CS)C(=O)N1CCC[C@H]1C(=O)O` [captopril, 1-[(2S)-3-mercapto-2-methylpropionyl]-L-proline], the “Max Force (phenylephrine-induced contraction)” value in assay [1] (Cholesterol + High Captopril (100 mg/kg daily, six months), Mean ± SEM) is listed as 19.2 ± 2.2 g; in assay [1] (Cholesterol + Low Captopril (50 mg/kg daily, six months), Mean ± SEM) it was 18.4 ± 2.8 g. Moreover, the EC50 – broadly, the concentration giving half of the maximal effect – at 100 mg/kg in assay [1] (Macaca fascicularis, Cholesterol + High Captopril (100 mg/kg daily, six months), Mean ± SEM, read-out: EC50 (phenylephrine-induced contraction)) is 1300 ± 600 nM. The EC50 at 50 mg/kg in assay [1] (Macaca fascicularis, Cholesterol + Low Captopril (50 mg/kg daily, six months), Mean ± SEM, read-out: EC50 (phenylephrine-induced contraction)) is 1000 ± 200 nM. Moreover, the “effect on in vitro response of iliac arteries to phenylephrine” value in assay [1] (cholesterol-fed monkeys, with captopril) is on record as “neither cholesterol nor captopril affected”. Further, the “endothelium dependent relaxation of normal rat aortic rings” value in assay [2] (in vitro) is “enhance endothelium dependent relaxation”. The “effect of acetylcholine in rat aortic rings after captopril feeding alone” value in assay [2] (without cholesterol) is “potentiate the effects of acetylcholine”. The coronary vasodilatory mechanism result in assay [3] was “potentiates the effect of locally increased BK”. Also, the “effect on removal of endothelin by guinea pig lungs” value in assay [4] was “without being affected by captopril”.
